Measured values from patent US9212143B2, “Small molecule inhibitors of protein kinases” (priority 2010, dated 2015).

How the values were obtained:
Assay type in all cases: cell-based, human
[1] = test system: syk phosphorylation in integrin/TNF stimulated neutrophils; experiment: syk phosphorylation in integrin/TNF stimulated neutrophils (in cell Western); settings: 10 ug/ml compound, TNFα 200 ng/ml, 1 hr; FIG. 11
Experimental: Inhibition of syk phosphorylation was tested using the FACEMaker in cell Western Blot kit from Active Motif (Carlsbad, Calif.). In this assay, freshly isolated neutrophils were plated onto fibrinogen coated wells and stimulated with TNF at 200 ng/ml. After 1 hr., cells were fixed in formaldehyde and the Western Blot performed according to the kit instructions, with the final colorimetric product read in a plate reader. Results were corrected for cell number by subsequent staining of the cells with crystal violet and recording OD at 630 nm.
Neutrophils were isolated from healthy human donors using Polymorphprep (Axis Shield). Cells were equilibrated for 15 minutes at 37° C. in the presence or absence of 10 ug/ml compound. TNFα was added to a concentration of 200 ng/ml and cells dispensed into a 96 well strip plate previously coated with 2 mg/ml fibrinogen at 1×10^6 cells/well. Reactions were incubated at 37° C. for 1 hr., and cells fixed with 4% formaldehyde for 20 minutes at room temperature. […] The reaction was developed using the kit developing solution and the resulting colorimetric product read in a plate reader at 450 nm with a 650 nm reference. […]

neutrophils = experiment: Zymosan phagocytosis by neutrophils (CytoSelect 96-Well Phagocytosis Assay); settings: 10 ug/ml compound, zymosan 1.5 hrs; FIG. 10
Experimental: Inhibition of phagocytosis was carried out using the CytoSelect™ 96-Well Phagocytosis Assay (Cell Biolabs, Inc). The phagocytic target was zymosan (Saccharomyces cerevisiae), made from yeast cell wall. For this assay, neutrophils were seeded onto fibrinogen coated wells in the presence of inhibitor. Zymosan was added, and reactions incubated for 1.5 hr. Phagocytosis was detected by permeabilizing the cells and adding a detection reagent that was quantified colorimetrically in a plate reader at 405 nm.
Neutrophils were isolated from healthy human donors using Polymorphprep (Axis Shield). Cells were equilibrated for 15 minutes at 37° C. in the presence or absence of 10 ug/ml compound, then plated into 96 well plates previously coated with 2 ng/ml fibrinogen. The subsequent phagocytosis assay was carried out using a commercial phagocytosis assay (CytoSelect™ 96-Well Phagocytosis Assay (Zymosan), Cell Biolabs.) Briefly, cells were incubated with zymosan at 37° C. for 1.5 hrs., fixed with 8% formaldehyde for 5 minutes at room temperature, blocked, permeabilized and detection reagent added which detects phagocytosed zymosan. The reaction was developed by adding a substrate and the resulting colorimetric product was detected in a plate reader. ODs were corrected for relative confluence of the cells based on a visual estimate of confluence. Results are reported as corrected ODs.

[2] = test system: TNF/antineutrophil cytoplasmic antibody stimulated neutrophils; experiment: Respiratory burst in TNF/antineutrophil cytoplasmic antibody stimulated neutrophils (cytochrome c reduction); settings: 10 ug/ml compound, TNFα 200 ng/ml, anti-MPO or anti-Pr3; FIGS. 5 and 6
Experimental: During the respiratory burst of activated neutrophils, reactive oxygen intermediates such as superoxide anion, hydroxyl radical, and hydrogen peroxide are produced. To determine the ability of compounds to affect syk dependent respiratory burst, superoxide anion production was measured in a microplate assay using the reduction of cytochrome c as a reporter assay. Respiratory burst can be induced through two different syk dependent signaling pathways, integrin mediated and Fc Receptor mediated. Compounds were tested in both pathways.
For respiratory burst assays, neutrophils (1×10^6) were added to microtiter plates that were coated with fibrinogen for integrin signaling or uncoated for Fc receptor signaling. […] At the end of the incubations, reduction of cytochrome c was quantified by measuring absorbance at 550 nm using a microplate reader. […]
(§1) Neutrophils were isolated from healthy human donors using Polymorphprep (Axis Shield). […] Reduction of cytochrome c was measured by reading absorbance at 550 nm with a 490 nm reference in a spectrophotometer. […]
as §1

N#Cc1c(C(F)(F)F)cc(-c2ccc(Br)cc2)nc1SC(C(=O)O)c1ccccc1 (stereo not drawn) [Compound 1, α-[[6-(4-bromophenyl)-3-cyano-4-(trifluoromethyl)-2-pyridinyl]thio]-benzeneacetic acid]
inhibition of syk phosphorylation in integrin/TNF stimulated neutrophils [1]: inhibition | inhibition of zymosan phagocytosis by neutrophils (neutrophils): inhibition | respiratory burst in TNF/antineutrophil cytoplasmic antibody stimulated neutrophils [2]: stimulation
